Measured values reported in patent publication US8497296B2, “N,N′-hydrazino-bis-isatin derivatives with selective activity against multidrug-resistant cancer cells” (King Saud University, priority 2011, dated 2013).

How the values were obtained:
KB-3-1 cells = assay: MTT cytotoxicity assay, parental KB-3-1 cell line; assay type: cell-based; details: Homo sapiens, parental KB-3-1 cells (HeLa derivative), 72 h incubation, at least three experiments, read-out: IC50 KB3-1
Description: (§1) The cytotoxicity of the prepared compounds was evaluated at Laboratory of Cell Biology, National Cancer Institute, National Institutes of Health, Bethesda, Md. 20892, Group in Biomolecular, USA, using the following protocol:
KB-3-1 cells (a HeLa deriviative) and its MDR derivative (KB-V1) were grown as previously described. Cell survival was measured by the MTT (3-(4,5-dimethylthiazol-2-yl)-2,5-diphenyltetrazolium bromide) assay as previously described. Briefly, cells were seeded in 100 μL of growth medium at a density of 5000 cells/well in 96-well plates and allowed to establish for 24 h, at which time serially diluted drugs were added in an additional 100 μL of growth medium. Cells were then incubated for 72 h at 37° C. in humidified 5% CO2, at which time the growth medium was drawn and replaced with MTT in IMDM growth medium and incubated for 4 h. The MTT solution was then drawn from the wells, and 100 μL of acidified ethanol solution was added to each well and after 15 min absorption at 560 nm was measured. […] The effect of treatment on cell viability was determined using the luminescent Cell Titer Glo Assay (Promega).

KB-V1 cells = assay: MTT cytotoxicity assay, P-glycoprotein-expressing MDR cell line KB-V1; assay type: cell-based; details: for IC50: Homo sapiens, P-glycoprotein-expressing MDR KB-V1 cells, 72 h incubation, MTT, at least three experiments, read-out: IC50 KBV1; for RR (MDR1 selectivity): ratio of IC50 against KB-3-1 cells divided by IC50 against KB-V1 cells, >1 = MDR1-selective
Description: as §1
KB-3-1 cells (a HeLa deriviative) and its MDR derivative (KB-V1) were grown as previously described. Cell survival was measured by the MTT (3-(4,5-dimethylthiazol-2-yl)-2,5-diphenyltetrazolium bromide) assay as previously described. Briefly, cells were seeded in 100 μL of growth medium at a density of 5000 cells/well in 96-well plates and allowed to establish for 24 h, at which time serially diluted drugs were added in an additional 100 μL of growth medium. Cells were then incubated for 72 h at 37° C. in humidified 5% CO2, at which time the growth medium was drawn and replaced with MTT in IMDM growth medium and incubated for 4 h. The MTT solution was then drawn from the wells, and 100 μL of acidified ethanol solution was added to each well and after 15 min absorption at 560 nm was measured. […]

| SMILES | IC50 (KB-3-1 cells) [µM] | IC50 (KB-V1 cells) [µM] | RR (MDR1 selectivity) (KB-V1 cells) |
| --- | --- | --- | --- |
| Cc1ccc2c(c1)/C(=N/N=C1\C(=O)Nc3ccccc31)C(=O)N2 [Compound 8, (Z)-5-Methyl-3-((Z)-(2-oxoindolin-3-ylidene)hydrazono)indolin-2-one] | 12.1 ± 3.14 | 14.9 ± 1.26 | 0.81 |
| O=C1Nc2ccc(F)cc2/C1=N/N=C1\C(=O)Nc2ccc(Cl)cc21 [Compound 19, (Z)-5-Chloro-3-((Z)-(5-fluoro-2-oxoindolin-3-ylidene)hydrazono)indolin-2-one] | 17.4 ± 4.41 | 11.3 ± 3.26 | 1.54 |
| O=C1Nc2ccc(Cl)cc2/C1=N/N=C1\C(=O)N(c2ccccc2)c2ccccc21 [Compound 13, (Z)-5-Chloro-3-((Z)-(2-oxo-1-phenylindolin-3-ylidene)hydrazono)indolin-2-one] | 6.79 ± 0.63 | 6.07 ± 1.19 | 1.12 |
| O=C1Nc2ccc(OC(F)(F)F)cc2/C1=N/N=C1\C(=O)N(c2ccccc2)c2ccccc21 [Compound 17, ((Z)-3-(Z)-(2-oxo-1-phenylindolin-3-ylidene)hydrazono)-5-(trifluoromethoxy)indolin-2-one] | 7.67 ± 0.88 | 4.8 ± 0.12 | 1.60 |
| O=C1Nc2ccccc2/C1=N/N=C1\C(=O)Nc2ccccc21 [Compound 3, (3Z,3′Z)-3,3′-(Hydrazine-1,2-diylidene)diindolin-2-one] | 17.1 ± 0.83 | 17.3 ± 1.59 | 0.99 |
| O=C1Nc2ccc(F)cc2/C1=N/N=C1\C(=O)Nc2ccc([N+](=O)[O-])cc21 [Compound 22, (Z)-5-Fluoro-3-((Z)-(5-nitro-2-oxoindolin-3-ylidene)hydrazono)indolin-2-one] | 56 ± 1.5 | 38.6 ± 13.5 | 1.45 |
| O=C1Nc2ccccc2/C1=N/N=C1\C(=O)N(c2ccccc2)c2ccccc21 [Compound 4, (Z)-3-((Z)-(2-Oxoindolin-3-ylidene)hydrazono)-1-phenylindolin-2-one] | 8.7 ± 2.21 | 10.8 ± 1.1 | 0.81 |
| O=C1Nc2ccc(F)cc2/C1=N/N=C1\C(=O)N(c2ccccc2)c2ccccc21 [Compound 12, (Z)-5-Fluoro-3-((Z)-(2-oxo-1-phenylindolin-3-ylidene)hydrazono)indolin-2-one] | 10.2 ± 1.52 | 11.2 ± 0.61 | 0.91 |
| O=C1Nc2ccccc2/C1=N/N=C1\C(=O)Nc2ccc(F)cc21 [Compound 5, (Z)-5-Fluoro-3-((Z)-(2-oxoindolin-3-ylidene)hydrazono)indolin-2-one] | 28.1 ± 2.48 | 25.3 ± 10.1 | 1.11 |
| Cc1ccc2c(c1)/C(=N/N=C1\C(=O)Nc3ccc(F)cc31)C(=O)N2 [Compound 21, (Z)-5-Fluoro-3-((Z)-(5-methyl-2-oxoindolin-3-ylidene)hydrazono)indolin-2-one] | 18.9 ± 0.46 | 17.9 ± 0.82 | 1.06 |
| O=C1Nc2ccccc2/C1=N/N=C1\C(=O)Nc2ccc(Cl)cc21 [Compound 6, (Z)-5-Chloro-3-((Z)-(2-oxoindolin-3-ylidene)hydrazono)indolin-2-one] | 9.67 ± 1.74 | 7.72 ± 0.5 | 1.25 |
| O=C1Nc2ccc(F)cc2/C1=N/N=C1\C(=O)Nc2ccc(OC(F)(F)F)cc21 [Compound 23, (Z)-5-Fluoro-3-((Z)-(2-oxo-5-(trifluoromethoxy)indolin-3-ylidene)hydrazono)indolin-2-one] | 15.2 ± 1.34 | 11.6 ± 2.55 | 1.31 |
| O=C1Nc2ccc([N+](=O)[O-])cc2/C1=N/N=C1\C(=O)N(c2ccccc2)c2ccccc21 [Compound 16, (Z)-5-Nitro-3-((Z)-(2-oxo-1-phenylindolin-3-ylidene)hydrazono)indolin-2-one] | 37.1 ± 4.05 | 48.6 ± 2.32 | 0.76 |
| O=C1Nc2ccc(F)cc2/C1=N/N=C1\C(=O)Nc2ccc(Br)cc21 [Compound 20, (Z)-5-Bromo-3-((Z)-(5-fluoro-2-oxoindolin-3-ylidene)hydrazono)indolin-2-one] | 15.4 ± 3.97 | 18.6 ± 2.01 | 0.83 |
| O=C1Nc2ccccc2/C1=N/N=C1\C(=O)Nc2ccc([N+](=O)[O-])cc21 [Compound 9, (Z)-5-Nitro-3-((Z)-(2-oxoindolin-3-ylidene)hydrazono)indolin-2-one] | 29.2 ± 2.81 | 30.4 ± 6.75 | 0.96 |
| O=C1Nc2ccccc2/C1=N/N=C1\C(=O)Nc2ccc(OC(F)(F)F)cc21 [Compound 10, (Z)-3-((Z)-(2-Oxoindolin-3-ylidene)hydrazono)-5-(trifluoromethoxy)indolin-2-one] | 9.75 ± 0.11 | 5.67 ± 1.18 | 1.72 |
| O=C1/C(=N\N=C2/C(=O)N(c3ccccc3)c3ccccc32)c2ccccc2N1c1ccccc1 [Compound 11, (3Z,3′Z)-3,3′-(Hydrazine-1,2-diylidene)bis(1-phenylindolin-2-one)] | 25.6 ± 2.39 | 22 ± 2.37 | 1.16 |
| O=C1Nc2ccc(Br)cc2/C1=N/N=C1\C(=O)N(c2ccccc2)c2ccccc21 [Compound 14, (Z)-5-Bromo-3-((Z)-(2-oxo-1-phenylindolin-3-ylidene)hydrazono)indolin-2-one] | 7.93 ± 2.11 | 8.71 ± 0.27 | 0.91 |
| O=C1Nc2ccc(F)cc2/C1=N/N=C1\C(=O)Nc2ccc(F)cc21 [Compound 18, (3Z,3′Z)-3,3′-(Hydrazine-1,2-diylidene)bis(5-fluoroindolin-2-one)] | 20.4 ± 4.62 | 16.5 ± 6.28 | 1.23 |
| Cc1ccc2c(c1)/C(=N/N=C1\C(=O)N(c3ccccc3)c3ccccc31)C(=O)N2 [Compound 15, (Z)-5-Methyl-3-((Z)-(2-oxo-1-phenylindolin-3-ylidene)hydrazono)indolin-2-one] | 8.37 ± 0.62 | 8.06 ± 1.68 | 1.04 |
| O=C1Nc2ccccc2/C1=N/N=C1\C(=O)Nc2ccc(Br)cc21 [Compound 7, (Z)-5-Bromo-3-((Z)-(2-oxoindolin-3-ylidene)hydrazono)indolin-2-one] | 9.71 ± 0.31 | 7.58 ± 1.43 | 1.28 |
| N/N=C1\C(=O)Nc2ccccc21 [Compound 2a, (Z)-3-Hydrazonoindolin-2-one] | > 500 | 125 ± 39.4 | – |
